Assay results: patent US20240197715A1, “PHARMACEUTICAL COMBINATIONS AND USES THEREOF” (NOVARTIS AG, priority 2022, published 2024)
Where “and” joins values, the source holds several entries; their conditions need not be identical. Identical values can stand only once.

Key:
Assay type in all cases: in vivo
[1] = Body weight / tolerability in T84 tumor-bearing nude mice; conditions: T84 study; 28-days TMZ cycle
Procedure: (§1) Tumor volumes (TVol), determined from caliper measurements (using the formula I*w2*TT/6) were measured two times per week. Tumor response was quantified by the change in tumor volume (endpoint minus starting value in mm^3) as the T/C. In the case of a tumor regression or to assess the percentage of change in TVol, the tumor response was quantified by the percentage of regression of the starting TVol. The body-weight (BW) of the animal was measured three times per week allowing calculation at any particular time-point relative to the day of initiation of treatment (day 0) of the percentage change in BW (4% BW).

[2] = Body weight / tolerability in SHP-77 tumor-bearing nude mice; conditions: SHP-77 study; single agent
Procedure: as §1

[3] = system: SHP-77 (CRL-2195, ATCC) MSS small cell lung carcinoma xenografts; experiment: SHP-77 MSS SCLC xenograft efficacy in nude mice; conditions: SHP77; TMZ 25 mg/kg p.o. 5 consecutive days within 28 days cycle
Procedure: SHP-77 (CRL-2195, ATCC) is a MSS small cell lung carcinoma (SCLC). It was cultured in RPMI 1640 Medium, GlutaMAX™ (#61870036, GIBCO) supplemented with 10% FCS (#2-O-1F30-I, BioConcept). Cells were passaged by washing first with Dulbecco's PBS without Ca^2+/Mg^2+ (#3-05F29-1, AMIMED), trypsinising cells with Trypsin 0.05% in PBS with EDTA (#5-51F00-H, AMIMED), centrifuging in the respective culture media, and splitting cells into fresh media at a ratio of 1:8, 2 times per week.
Athymic nude mice (Charles River, Germany) were allowed to adapt for 7 days upon arrival at the animal facility and housed in a pathogen-controlled environment (5 mice/Type III cage) with access to food and water ad libitum. Animals were identified with transponders. […]
as §1

[4] = Body weight / tolerability in SW620 tumor-bearing nude mice; conditions: SW620 study; 21-days TMZ cycle
Procedure: as §1, with “I*w2*π/6)” for “I*w2*TT/6)”, “T/C (the ratio between the tumor volume in the treated group and in the untreated control group).” for “T/C.”

[5] = system: SW620 (CCL-227, ATCC) MSS colorectal carcinoma xenografts; experiment: SW620 MSS CRC xenograft efficacy in nude mice; conditions: SW620; TMZ p.o. 5 consecutive days within 21 days cycle (100 mg/kg)
Procedure: SW620 (CCL-227, ATCC) [MSS colorectal carcinoma (CRC)] was cultured in DMEM (#1-26F01-I, AMIMED) supplemented with 10% FCS (#2-0-1F30-I, BioConcept), 4 mM L-glutamine (#5-10K50-H, BioConcept) and 1 mM Sodium pyruvate (#5-60F00-H, BioConcept). Cells were passaged by washing first with Dulbecco's PBS without Ca^2+/Mg^2+ (#3-05F29-1, AMIMED), trypsinising cells with Trypsin 0.05% in PBS with EDTA (#5-51F00-H, AMIMED), centrifuging in the respective culture media, and splitting cells into fresh media at a ratio of 1:8, 2 times per week.
Athymic nude mice (Charles River, Germany) were allowed to adapt for 7 days upon arrival at the animal facility and housed in a pathogen-controlled environment (5 mice/Type III cage) with access to food and water ad libitum. Animals were identified with transponders. Studies described in this report were performed according to procedures covered by a permit number issued by the Kantonales Veterinäramt Basel-Stadt.
Subcutaneous tumors were initiated by injecting 5.0×10^6 SW620 tumor cells in 50% Matrigel (#354234, Corning) in HBSS (#H6648, SIGMA) in the right flank of nude mice. The efficacy experiment (n=6), started 11 days post-cell injection.
Compound A and Temozolomide were made-up fresh on a weekly basis and kept at 4° C. and protected from light. Compound A was dissolved in 20% Hydroxypropyl-ß-Cyclodextrine (HP-ß-CD, #H107-100G, SIGMA) in UltraPure™ Water (#10977-035, Invitrogen) and administered p.o. at 10 ml/kg. Temozolomide was dissolved in 30% PEG-400 (#202398-500G, SIGMA) and 70% Dulbecco's PBS without Ca^2+/Mg^2+ (#3-05F29-1, AMIMED) and administered p.o. at 10 mL/kg on 5 consecutive days within a 21 days cycle. Irinotecan was made-up fresh for each treatment once a week by diluting with NaCl 0.9% (#3-06S00-I, BioConcept). The solution was administered i.v. at 5 mL/kg.
as §1, with “I*w2*π/6)” for “I*w2*TT/6)”, “T/C (the ratio between the tumor volume in the treated group and in the untreated control group).” for “T/C.”
At day 43 post-cell injection, irinotecan was administered intravenously at 15 mg/kg once weekly for 7 weeks in combination with Compound A, also administered from day 43, orally at 120 mg/kg daily for 52 days.
Starting 11 days post-cell injection, temozolomide was administered orally on a 21 day cycle of 5 consecutive days at 100 mg/kg on 5 consecutive days (day 11 to day 15 and day 32 to day 36). At day 43 post-cell injection, to the first group irinotecan was administered intravenously at 15 mg/kg once weekly for 6 weeks, and to the second group irinotecan was administered intravenously at 15 mg/kg once weekly for 6 weeks in combination with Compound A, also administered from day 43, orally at 120 mg/kg daily for 46 days.

Cn1nnc2c(C(N)=O)ncn2c1=O [temozolomide]
body weight change [1]: slight body weight loss but mice always recovered at the end of the 28-days cycle | tolerability [2]: well tolerated | tumor regression after 2 cycles [3]: 90% | body weight change [4]: dose-dependent body weight loss but mice always recovered at the end of the 21-days cycle | tumor regression after 1 cycle of temozolomide [5]: 30-50% and 40%
